# Source: article PMC11589570, “Critical assessment of LC3/GABARAP ligands used for degrader development and ligandability of LC3/GABARAP binding pockets” (Nature Communications, 2024)
# Where two headings read alike, the source gives them in different places.
# Target: GABARAP (Homo sapiens, UniProt O95166)
# Assay type: binding
# Design: CSP induced: unit not given here
# Settings: for CSP: GABARAP:TH152 molar ratio 1:2
# Sequence of GABARAP (O95166 1-116): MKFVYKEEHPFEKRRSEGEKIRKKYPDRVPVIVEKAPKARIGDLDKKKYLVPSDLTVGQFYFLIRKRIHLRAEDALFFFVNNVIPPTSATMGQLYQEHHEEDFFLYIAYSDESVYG
smiles,measurement,setting,value
CCCCCCC(Sc1nc(Cl)cc(Nc2nc(-c3ccc(C(=O)O)cc3)cs2)n1)C(=O)O (centres unmarked) [compound 21],CSP induced,"F77 HN resonance, molar ratio TH152:GABARAP 0.125",0.00585
same,CSP induced,"F77 HN resonance, molar ratio TH152:GABARAP 0.25",0.01072
same,CSP induced,"F77 HN resonance, molar ratio TH152:GABARAP 0.5",0.01977
same,CSP induced,"F77 HN resonance, molar ratio TH152:GABARAP 1",0.04412
same,CSP induced,"F77 HN resonance, molar ratio TH152:GABARAP 2",0.07555
same,CSP induced,"F77 HN resonance, molar ratio TH152:GABARAP 4",0.08937
same,interaction in 2D NMR titration,GABARAP,interacted with TH152 via the LDS binding site
same,CSP,GABARAP residue A36,0.025 ppm
same,CSP,GABARAP residue A39,0.019 ppm
same,CSP,GABARAP residue A72,0.005 ppm
same,CSP,GABARAP residue A75,0.00571 ppm
same,CSP,GABARAP residue A108,0.038 ppm
same,CSP,GABARAP residue D27,0.012 ppm
same,CSP,GABARAP residue D43,0.019 ppm
same,CSP,GABARAP residue D45,0.052 ppm
same,CSP,GABARAP residue D54,0.019 ppm
same,CSP,GABARAP residue D74,0.004 ppm
same,CSP,GABARAP residue D102,0.027 ppm
same,CSP,GABARAP residue D111,0.080 ppm
same,CSP,"GABARAP residue E7, estimated",0.005 ppm
same,CSP,GABARAP residue E8,0.010 ppm
same,CSP,GABARAP residue E12,0.005 ppm
same,CSP,GABARAP residue E17,0.025 ppm
same,CSP,GABARAP residue E19,0.021 ppm
same,CSP,GABARAP residue E34,0.056 ppm
same,CSP,GABARAP residue E73,0.015 ppm
same,CSP,GABARAP residue E97,0.019 ppm
same,CSP,GABARAP residue E100,0.010 ppm
same,CSP,"GABARAP residue E101, estimated",0.015 ppm
same,CSP,GABARAP residue E112,0.029 ppm
same,CSP,GABARAP residue F3,0.007 ppm
same,CSP,GABARAP residue F11,0.00637 ppm
same,CSP,GABARAP residue F60,0.060 ppm
same,CSP,GABARAP residue F62,0.051 ppm
same,CSP,GABARAP residue F77,0.076 ppm
same,CSP,GABARAP residue F78,0.035 ppm
same,CSP,GABARAP residue F79,0.034 ppm
same,CSP,GABARAP residue F103,0.019 ppm
same,CSP,GABARAP residue F104,0.027 ppm
same,CSP,GABARAP residue G18,0.016 ppm
same,CSP,GABARAP residue G42,0.033 ppm
same,CSP,GABARAP residue G58,0.028 ppm
same,CSP,GABARAP residue G116,0.011 ppm
same,CSP,"GABARAP residue H9, estimated",0.005 ppm
same,CSP,GABARAP residue H69,0.044 ppm
same,CSP,GABARAP residue H98,0.018 ppm
same,CSP,GABARAP residue H99,0.035 ppm
same,CSP,GABARAP residue I21,0.030 ppm
same,CSP,GABARAP residue I32,0.077 ppm
same,CSP,GABARAP residue I41,0.054 ppm
same,CSP,GABARAP residue I64,0.020 ppm
same,CSP,GABARAP residue I68,0.084 ppm
same,CSP,GABARAP residue I107,0.011 ppm
same,CSP,GABARAP residue K2,0.014 ppm
same,CSP,"GABARAP residue K6, estimated",0.005 ppm
same,CSP,GABARAP residue K13,0.013 ppm
same,CSP,GABARAP residue K20,0.009 ppm
same,CSP,GABARAP residue K23,0.019 ppm
same,CSP,GABARAP residue K24,0.039 ppm
same,CSP,GABARAP residue K35,0.019 ppm
same,CSP,GABARAP residue K38,0.015 ppm
same,CSP,GABARAP residue K46,0.079 ppm
same,CSP,GABARAP residue K47,0.091 ppm
same,CSP,GABARAP residue K48,0.061 ppm
same,CSP,GABARAP residue K66,0.014 ppm
same,CSP,GABARAP residue L44,0.040 ppm
same,CSP,GABARAP residue L50,0.088 ppm
same,CSP,GABARAP residue L55,0.088 ppm
same,CSP,GABARAP residue L63,0.085 ppm
same,CSP,GABARAP residue L70,0.021 ppm
same,CSP,GABARAP residue L76,0.043 ppm
same,CSP,GABARAP residue L105,0.011 ppm
same,CSP,GABARAP residue M1,0.016 ppm
same,CSP,GABARAP residue N81,0.019 ppm
same,CSP,"GABARAP residue P10, estimated",0.005 ppm
same,CSP,"GABARAP residue P26, estimated",0.080 ppm
same,CSP,"GABARAP residue P30, estimated",0.060 ppm
same,CSP,"GABARAP residue P37, estimated",0.020 ppm
same,CSP,"GABARAP residue P52, estimated",0.030 ppm
same,CSP,GABARAP residue Q59,0.033 ppm
same,CSP,GABARAP residue Q96,0.025 ppm
same,CSP,"GABARAP residue R14, estimated",0.005 ppm
same,CSP,"GABARAP residue R15, estimated",0.005 ppm
same,CSP,GABARAP residue R22,0.015 ppm
same,CSP,GABARAP residue R28,0.021 ppm
same,CSP,GABARAP residue R40,0.023 ppm
same,CSP,GABARAP residue R65,0.067 ppm
same,CSP,GABARAP residue R67,0.024 ppm
same,CSP,GABARAP residue R71,0.007 ppm
same,CSP,GABARAP residue S16,0.016 ppm
same,CSP,GABARAP residue S53,0.013 ppm
same,CSP,GABARAP residue S110,0.015 ppm
same,CSP,GABARAP residue S113,0.021 ppm
same,CSP,GABARAP residue T56,0.032 ppm
same,CSP,GABARAP residue V29,0.058 ppm
same,CSP,GABARAP residue V31,0.082 ppm
same,CSP,GABARAP residue V33,0.031 ppm
same,CSP,GABARAP residue V51,0.069 ppm
same,CSP,GABARAP residue V57,0.065 ppm
same,CSP,GABARAP residue V80,0.037 ppm
same,CSP,GABARAP residue V114,0.00433 ppm
same,CSP,GABARAP residue Y25,0.070 ppm
same,CSP,GABARAP residue Y49,0.168 ppm
same,CSP,GABARAP residue Y61,0.053 ppm
same,CSP,GABARAP residue Y106,0.025 ppm
same,CSP,GABARAP residue Y109,0.022 ppm
same,CSP,GABARAP residue Y115,0.00181 ppm
same,CSP induced,"K46 HN resonance, molar ratio TH152:GABARAP 0.125",0.0126
same,CSP induced,"K46 HN resonance, molar ratio TH152:GABARAP 0.25",0.02165
same,CSP induced,"K46 HN resonance, molar ratio TH152:GABARAP 0.5",0.03932
same,CSP induced,"K46 HN resonance, molar ratio TH152:GABARAP 1",0.07004
same,CSP induced,"K46 HN resonance, molar ratio TH152:GABARAP 2",0.07915
same,CSP induced,"K46 HN resonance, molar ratio TH152:GABARAP 4",0.08104
same,CSP induced,"Y25 HN resonance, molar ratio TH152:GABARAP 0.125",0.00667
same,CSP induced,"Y25 HN resonance, molar ratio TH152:GABARAP 0.25",0.01133
same,CSP induced,"Y25 HN resonance, molar ratio TH152:GABARAP 0.5",0.01934
same,CSP induced,"Y25 HN resonance, molar ratio TH152:GABARAP 1",0.03193
same,CSP induced,"Y25 HN resonance, molar ratio TH152:GABARAP 2",0.06979
same,CSP induced,"Y25 HN resonance, molar ratio TH152:GABARAP 4",0.08466
